In brackets after ≈: the same amount, converted by molar mass.
Experiments:
[1] = tested on: Acinetobacter baumannii 20-1; assay: microbe, parasite or virus in culture; assay type: cell-based; conditions: 20-1, 20 h
Procedure, shortened: (§1)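 Broth microdilution in MHB, run for these clinical isolates by an external lab with a similar protocol: twofold dilutions (16–0.0313 μg/mL for massatides; 64–0.125 μg/mL for sistertide A1, kebanetides), 37 °C for 20 h, growth read as OD600 to give the MIC. Levofloxacin served as positive control.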

[2] = tested on: Acinetobacter baumannii 20-2; assay: microbe, parasite or virus in culture; assay type: cell-based; conditions: 20-2, 20 h
Procedure, shortened: as §1

Bacillus subtilis 168 = assay: microbe, parasite or virus in culture; assay type: cell-based; conditions: 168, 20 h
[3] = tested on: Enterococcus faecalis OG1RF; assay: microbe, parasite or virus in culture; assay type: cell-based; conditions: OG1RF, 20 h
Procedure, shortened: (§2)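 Broth microdilution in MHB with two-fold compound series, 37 °C for 20 h; growth read by OD600 to give MIC. Clinical isolates tested externally by a similar protocol.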

[4] = tested on: Enterococcus faecium MCC2763; assay: microbe, parasite or virus in culture; assay type: cell-based; conditions: MCC2763, 20 h
Procedure, shortened: as §1

[5] = tested on: Klebsiella pneumoniae 15-1; assay: microbe, parasite or virus in culture; assay type: cell-based; conditions: 15-1, 20 h
Procedure, shortened: as §1

[6] = tested on: Klebsiella pneumoniae ATCC700603; assay: microbe, parasite or virus in culture; assay type: cell-based; conditions: ATCC700603, 20 h
Procedure, shortened: as §1

[7] = tested on: Micrococcus luteus DSM1790; assay: microbe, parasite or virus in culture; assay type: cell-based; conditions: DSM1790, 20 h
[8] = tested on: Staphylococcus aureus ATCC25923; assay: microbe, parasite or virus in culture; assay type: cell-based; conditions: ATCC25923, 20 h
Procedure, shortened: as §2

S. aureus ATCC 25923 = assay: Lysis of S. aureus culture; assay type: cell-based, Staphylococcus aureus; conditions: S. aureus ATCC 25923 culture OD600 1.0, 10×MIC, 24 h
Protocol: Growth kinetics of S. aureus
Massatide A or B was prepared in a 96-well plate at the concentration of 8×MIC, 4×MIC, 2×MIC, 1×MIC and 0.5×MIC , respectively. The MHB medium with no compound was used as a control. Then, the overnight culture of S. aureus ATCC 25923 cells was added to the medium at 1:1,000. The plate was incubated with shaking in SpectraMax iD3 (MOLECULAR DEVICES) at 30 ℃. OD600 was measured every 30 min for 36 hours. To analyze the lysis, 1mL of S. aureus ATCC 25923 culture (OD600 1.0) was treated with massatide A or vancomycin (10×MIC) for 24h. An untreated sample was used as a negative control. […]
Experiments were performed in triplicate. […]

chymotrypsin = conditions: 32 μg/mL in H2O, protease 100:1 (w:w), 37 °C, 4 h, 8 h and 12 h, UPLC-LRMS
Protocol: (§3) Protease stability of massatide A
(§4) We selected TEV protease, Endoproteinase AspN, Endoproteinase GluC, trypsin, and chymotrypsin to evaluate the stability of massatide A. The protease digestion assay was conducted as follows: (i) Stock solution of massatide A (3.2 mg/mL in DMSO) was diluted in H2O with final concentration of 32 μg/mL, (ii) each protease was added with 100:1 (w:w) ratio and incubated under corresponding temperature, i.e., 37 °C for TEV protease, trypsin, and chymotrypsin and 30 °C for Endoproteinase AspN and […]
(§5) Endoproteinase GluC. […]
1 μ L samples were taken and diluted with water for UPLC -LRMS analysis. […]

[9] = tested on: TEV protease, Endoproteinase AspN, Endoproteinase GluC; conditions: many other proteases (TEV protease 37 °C, Endoproteinase AspN and GluC 30 °C), 32 μg/mL, 100:1 (w:w), 4 h, 8 h, 12 h, UPLC-LRMS
Protocol: as §3, §4, §5

trypsin = conditions: 32 μg/mL in H2O, protease 100:1 (w:w), 37 °C, 4 h, 8 h and 12 h, UPLC-LRMS
Protocol: as §3, §4, §5

S. aureus ATCC259923 = assay: UDP-N-acetyl-muramic acid pentapeptide levels (HPLC-HRMS); assay type: cell-based, Staphylococcus aureus; conditions: S. aureus treated with or without massatide A, comparative HPLC-HRMS, preliminary unpublished data
Excerpt: page 26: “Also, there is no discussion about the possible mechanism of antibacterial activity.” We have included a discussion on the proposed mode of action of […] A in the discussion section in lines 388-394 of our manuscript. “Avi(Me)Cys-containing lanthipeptides are reported to target lipid II, an essential precursor in cell wall biosynthesis. […], which shares structural similarities with cacaoidin, may potentially target lipid II or certain membrane proteins involved in peptidoglycan biosynthesis. However, a comprehensive study is necessary to fully uncover the detailed mode of action of […] A, which will be the primary focus of our ongoing research.” In our ongoing study, we have obtained some preliminary unpublished data supporting our hypothesis that […] A may inhibit cell wall biosynthesis. We assessed UDP-N-acetyl-muramic acid pentapeptide levels, an essential precursor in cell wall biosynthesis, in the S. aureus ATCC259923 strain treated with or without […] The mode of action of […] A will be further investigated in our ongoing research. […] 12. p. 16: the data that […] A1 and A2 act synergistically are not convincing - see also main comment above. […] We acknowledge the concern regarding the insufficient evidence supporting the presence of a synergistic effect in our study. As a result, we have opted to remove any conclusions relating to synergy. […]

`C/C=C1\NC(=O)C(N(C)C)C(C)SC[C@@H](C(=O)N[C@H](CC)C(=O)N[C@H](C(=O)N[C@@H](C)C(=O)N[C@H](C)C(=O)N[C@@H](Cc2ccccc2)C(=O)N[C@@H](C)C(=O)NC2C(=O)NCC(=O)N[C@@H](Cc3ccc(O)cc3)C(=O)N[C@@H](Cc3ccccc3)C(=O)N[C@H](C)C(=O)N/C=C\SC2C)C(C)C)NC(=O)[C@@H]2CCCN2C(=O)[C@H](C(C)C)NC1=O` (some centres unmarked) [Massatide A (1), massatide A] was tested, and the MIC [1] was 64 µg/mL (≈ 39.1 µM), the MIC [2] was 64 µg/mL (≈ 39.1 µM) and the MIC (Bacillus subtilis 168) was 2 µg/mL (≈ 1.22 µM). For the same molecule, the MIC [3] was 4 µg/mL (≈ 2.45 µM), the MIC [4] was 2 µg/mL (≈ 1.22 µM) and the MIC [5] was greater than 64 µg/mL. The MIC [6] was greater than 64 µg/mL, the MIC [7] was 0.06 µg/mL (≈ 0.0367 µM) and the MIC [8] was 0.5 µg/mL (≈ 0.306 µM). For the same molecule, the “lysis of the cell culture” value (S. aureus ATCC 25923) was “did not result in lysis”, the protease stability (chymotrypsin) was “resistant” and the protease stability [9] was “resistant”. For the same molecule, the protease stability (trypsin) was “resistant” and the “UDP-N-acetyl-muramic acid pentapeptide levels” value (S. aureus ATCC259923) was “increased levels”.
